This is an account of results in patent US20110171683A1, “METHODS AND COMPOSITIONS FOR ENUMERATING ANTIBIOTIC-RESISTANT MICROORGANISMS” (priority 2008, published 2011).

For the experiment, the system named is methicillin-resistant Staphylococcus aureus strain 560. Description: Colony counts on PETRIFILM plates and blood agar plates containing cefoxitin or oxacillin. The format is cell-based. As to conditions: conclusion in words from Tables 1 and 2. The protocol:
PETRIFILM Aerobic Count Plates were obtained from 3M Company (St. Paul, Minn.). DIFCO dehydrated tryptic soy agar (TSA) was obtained from BD Diagnostics (Sparks, Md.). Defibrinated sheep blood was obtained from Remel, Inc. (Lenexa, Kans.).
Phosphate-buffered saline (PBS), pH 7.5, was prepared from a 10× concentrate (OmniPur 6505 buffered saline; EMD Chemicals, Inc.; Gibbstown, N.J.) and was sterilized by autoclaving. Antibiotic stock solutions were prepared in deionized water and were sterilized by passage through a 0.22 μm filter.
Sheep blood agar containing cefoxitin (SBA-Cf) was prepared to compare the recovery of antibiotic resistant microorganisms on agar media to the recovery of the antibiotic-resistant microorganisms in a thin-film culture device. Twenty grams of dehydrated TSA was mixed with 475 mL of deionized water and autoclaved. The molten agar was tempered at 50° C. Twenty-five milliliters of defibrinated sheep blood was added to the agar (to yield a final concentration of 5% sheep blood) and swirled to mix. Cefoxitin stock solution (0.5 mL of 4 mg/mL) was added to the agar and swirled to mix. […]
Bacterial strains were inoculated into tryptic soy broth and were incubated overnight at 37° C. […] All plates were incubated at 35° C. and the colonies on each plate were counted at 24±2 hours and 48±4 hours.

The structures appear in SMILES notation.

Take `Cc1onc(-c2ccccc2)c1C(=O)N[C@@H]1C(=O)N2[C@@H]1SC(C)(C)[C@@H]2C(=O)O` [oxacillin]: the “Sensitivity or resistance of strain 560 to the antibiotic” value is reported as “resistant”.

`CO[C@@]1(NC(=O)Cc2cccs2)C(=O)N2C(C(=O)O)=C(COC(N)=O)CS[C@@H]21` [cefoxitin]: the “Sensitivity or resistance of strain 560 to the antibiotic” value is listed as “sensitive”.
